The text below walks through data of patent publication US20260216347A1, “Substituted Imidazo-Based Compounds as Ligand Directed Degraders of IRAK3” (Celgene Corporation, priority 2022, published 2026).

The target of this assay is T1, IRAK3 (Homo sapiens, UniProt Q9Y616).
T1 construct: IRAK Endogenous HTRF Degradation Assay; endogenous in cells
T1 sequence (Q9Y616 1-596): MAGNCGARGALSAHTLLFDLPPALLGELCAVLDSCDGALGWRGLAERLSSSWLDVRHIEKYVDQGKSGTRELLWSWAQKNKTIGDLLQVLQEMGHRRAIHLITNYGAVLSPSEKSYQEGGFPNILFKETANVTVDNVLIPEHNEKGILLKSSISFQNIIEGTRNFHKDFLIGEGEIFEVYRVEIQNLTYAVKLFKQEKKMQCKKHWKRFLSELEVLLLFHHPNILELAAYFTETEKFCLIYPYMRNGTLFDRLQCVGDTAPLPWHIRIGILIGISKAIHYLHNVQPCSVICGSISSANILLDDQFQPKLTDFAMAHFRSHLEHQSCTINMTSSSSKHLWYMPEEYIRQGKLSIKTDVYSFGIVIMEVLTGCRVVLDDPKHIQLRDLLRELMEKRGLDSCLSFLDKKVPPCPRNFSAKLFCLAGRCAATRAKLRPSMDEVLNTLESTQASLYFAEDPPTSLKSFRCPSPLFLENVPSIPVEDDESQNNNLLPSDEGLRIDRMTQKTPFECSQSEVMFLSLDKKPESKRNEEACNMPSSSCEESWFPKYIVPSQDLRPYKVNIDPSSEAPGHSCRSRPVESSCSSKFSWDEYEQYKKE
The experiment in a line: IRAK3 biochemical binding assay (LanthaScreen Eu Kinase Binding, TR-FRET). The procedure: Example B3. IRAK3 Biochemical Binding Assay
The LanthaScreen® Eu Kinase Binding assay was performed as described by the vendor (ThermoFisher Scientific Waltham, MA). Briefly, 100× solutions of compound were prepared in DMSO via serial dilution of the 10 mM stock solution in a 384-well reagent plate using 3-fold intervals to achieve final concentrations. 1 μL of the compound dilution series were added to the corresponding wells of a 384-well reagent plate containing 32.3 μL of 1× buffer (50 mM HEPES pH 7.4, […], 1 mM EGTA, 0.01% Brij-35). 5 μL of the buffer diluted compounds were transferred to the corresponding wells of a 384-well assay plate. 5 μL of 3× tracer was transferred to each well of the assay plate for a final tracer concentration of 10 nM. Finally, 5 μL of the 3×Eu-Anti-GST and IRAK3 mix was transferred to each well for a final concentration of 2 nM and 10 nM respectively. Reactions were allowed to incubate for 1 hour at room temperature. TR-FRET signal of the interaction (λex340/λem 665/λem 615) was read at room temperature with a delay time of 100 ρs and an integration time of 200 ρs using an Envision plate reader. Background corrected emission signal ratios at each compound concentration were used to calculate percentage of inhibition (% Inhibition). Plots of % Inhibition versus inhibitor concentrations were fit according to a dose-response equation (Eq. 1) to generate IC50 and Hill slope values using Dotmatics software (Dotmatics, Bishops Stortford, Hertfordshire, England).
Using these assays, IC50, Dmax, EC50, and DC50 values of the following compounds were determined. Dmax is defined as the maximum percent degradation achieved and DC50 is the concentration at which 50% degradation is achieved.
Take `Cc1cc(-c2cnc(Nc3cnn(C4CCN(CCN5CC6(C5)CN(c5ccc(C7CCC(=O)NC7=O)cc5)C6)CC4)c3)c3nccn23)c(F)cc1F` (stereo not shown) [Compound 97, 3-(4-(6-(2-(4-(4-((5-(2,4-difluoro-5-methylphenyl)imdazo [1,2-a]pyrazin-8-yl)amino)-1H-pyrazol-1-yl)piperidin-1-yl)ethyl)-2,6-diazaspiro[3.3]heptan-2-yl)phenyl) piperidine-2,6-dione]: the IC50 is 1.3 nM. With `Cc1cc(-c2cnc(Nc3cnn([C@H]4CCCN(CCN5CCN(c6ccc(C7CCC(=O)NC7=O)cc6)CC5)CC4)c3)c3nccn23)c(F)cc1F` (single isomer, unassigned) [Compound 111] the figure was 0.05 nM; with `CS(=O)(=O)c1cccc(-c2cnc(Nc3cnn(C4CCN(CCN5CCN(c6ccc(C7CCC(=O)NC7=O)cc6)CC5)CC4)c3)c3nccn23)c1` (stereo not shown) [Compound 86, 3-(4-(4-(2-(4-(4-((5-(3-(methylsulfonyl)phenyl)imidazo[1,2-a]pyrazin-8-yl)amino)-1H-pyrazol-1-yl)piperidin-1-yl)ethyl)piperazin-1-yl)phenyl) piperidine-2,6-dione], 380 nM.

As for `O=C1CCC(c2ccc(N3CCN(CCN4CCC(n5cc(Nc6ncc(-c7ccccc7)n7ccnc67)cn5)CC4)CC3)cc2)C(=O)N1` (stereo not shown) [Compound 88, 3-(4-(4-(2-(4-(4-((5-phenylimidazo[1,2-a]pyrazin-8-yl)amino)-1H-pyrazol-1-yl)piperidin-1-yl)ethyl)piperazin-1-yl)phenyl) piperidine-2,6-dione], the IC50 worked out at 16 nM. Regarding `Cn1nc(C2CCC(=O)NC2=O)c2ccc(N3CCN(CCN4CCC(n5cc(Nc6ncc(C7CC7)n7ccnc67)cn5)CC4)CC3)cc21` (stereo not shown) [Compound 115, 3-(6-(4-(2-(4-(4-((5-cyclopropylimidazo[1,2-a]pyrazin-8-yl)amino)-1H-pyrazol-1-yl)piperidin-1-yl)ethyl)piperazin-1-yl)-1-methyl-1H-indazol-3-yl)piperidine-2,6-dione], the IC50 worked out at 25 nM.

In turn, `Cc1cc(-c2cnc(Nc3cnn([C@H]4C[C@H](CN5CCN(c6ccc(C7CCC(=O)NC7=O)cc6)CC5)C4)c3)c3nccn23)c(F)cc1F` (stereo partly shown) [Compound 99] returned an IC50 of 0.44 nM. With `Cc1cc(-c2cnc(Nc3cnn(C4CCN(CCN5CCC(n6cc(C7CCC(=O)NC7=O)cn6)CC5)CC4)c3)c3nccn23)c(F)cc1F` (stereo not shown) [Compound 109, 3-(1-(1-(2-(4-(4-((5-(2,4-difluoro-5-methylphenyl)imdazo [1,2-a]pyrazin-8-yl)amino)-1H-pyrazol-1-yl)piperidin-1-yl)ethyl)piperidin-4-yl)-1H-pyrazol-4-yl)piperidine-2,6-dione], the IC50 was determined as 0.26 nM. `Cc1cc(-c2cnc(Nc3cnn([C@H]4CC[C@H](CCN5CCN(c6cccc7c(C8CCC(=O)NC8=O)nn(C)c67)CC5)CC4)c3)c3nccn23)c(F)cc1F` (stereo partly drawn) [Compound 117, 3-(7-(4-(2-((trans)-4-(4-((5-(2,4-difluoro-5-methylphenyl)imidazo[1,2-a]pyrazin-8-yl)amino)-1H-pyrazol-1-yl)cyclohexyl)ethyl)piperazin-1-yl)-1-methyl-1H-indazol-3-yl)piperidine-2,6-dione] displayed a half-maximal inhibitory concentration (IC50) of 1 nM. The compound `Cc1cc(-c2ccc(Nc3cnn([C@H]4CC[C@H](CCN5CCN(c6ccc(C7CCC(=O)NC7=O)cc6)CC5)CC4)c3)c3nccn23)c(F)cc1F` (stereo partly shown) [Compound 108] had an IC50 of 2.6 nM.

With `Cc1cc(-c2cnc(Nc3cnn([C@H]4CC[C@H](CCN5CCN(c6ccc7c(C8CCC(=O)NC8=O)nn(C)c7c6)CC5)CC4)c3)c3nccn23)c(F)cc1F` (stereo partly drawn) [Compound 105, 3-(6-(4-(2-((trans)-4-(4-((5-(2,4-difluoro-5-methylphenyl)imidazo[1,2-a]pyrazin-8-yl)amino)-1H-pyrazol-1-yl)cyclohexyl)ethyl)piperazin-1-yl)-1-methyl-1H-indazol-3-yl)piperidine-2,6-dione], the half-inhibitory concentration (IC50) was determined as 0.18 nM. Turning to `Cc1cc(-c2cnc(Nc3cnn([C@H]4CC[C@@H](CCN5CC6(C5)CN(c5ccc(C7CCC(=O)NC7=O)cc5)C6)CC4)c3)c3nccn23)c(F)cc1F` (stereo partly shown) [Compound 101], the IC50 was determined as 7.6 nM. Under `O=C1CCC(c2ccc(N3CCN(CCN4CCC(n5cc(Nc6ncc(-c7cnn(C8CC8)c7)n7ccnc67)cn5)CC4)CC3)cc2)C(=O)N1` (stereo not shown) [Compound 119, 3-(4-(4-(2-(4-(4-((5-(1-cyclopropyl-1H-pyrazol-4-yl)imidazo[1,2-a]pyrazin-8-yl)amino)-1H-pyrazol-1-yl)piperidin-1-yl)ethyl)piperazin-1-yl)phenyl) piperidine-2,6-dione] stands 1.7 nM; under `Cc1cc(-c2cnc(Nc3cnn([C@H]4CC[C@H](CCN5CC6(C5)CN(c5ccc(C7CCC(=O)NC7=O)cc5)C6)CC4)c3)c3nccn23)c(F)cc1F` (stereo partly shown) [Compound 104], 0.3 nM. Under `Cc1cc(-c2ccc(Nc3cnn([C@H]4CC[C@@H](CCN5CCN(c6ccc(C7CCC(=O)NC7=O)cc6)CC5)CC4)c3)c3nccn23)c(F)cc1F` (stereo partly shown) [Compound 103] stands 2 nM; under `Cc1cc(-c2cnc(Nc3cnn([C@@H]4CCCN(CCN5CCN(c6ccc(C7CCC(=O)NC7=O)cc6)CC5)CC4)c3)c3nccn23)c(F)cc1F` (single isomer, unassigned) [Compound 112], 0.48 nM; under `O=C1CCC(c2ccc(N3CCN(CC[C@H]4CC[C@H](n5cc(Nc6ncc(-c7cnn8c7CCCC8)n7ccnc67)cn5)CC4)CC3)cc2)C(=O)N1` (stereo partly shown) [Compound 118], 0.1 nM. In turn, `COc1ccc(-c2cnc(Nc3cnn(C4CCN(CCN5CCN(c6ccc(C7CCC(=O)NC7=O)cc6)CC5)CC4)c3)c3nccn23)cc1` (stereo not shown) [Compound 87, 3-(4-(4-(2-(4-(4-((5-(4-methoxyphenyl)imidazo[1,2-a]pyrazin-8-yl)amino)-1H-pyrazol-1-yl)piperidin-1-yl)ethyl)piperazin-1-yl)phenyl) piperidine-2,6-dione] yielded an IC50 of 4 nM. Take `Cc1cc(-c2cnc(Nc3cnn(C4CCN(CCN5CCN(c6ccc(-n7cc(F)c(=O)[nH]c7=O)cc6)CC5)CC4)c3)c3nccn23)c(F)cc1F` [Compound 110, 1-(4-(4-(2-(4-(4-((5-(2,4-difluoro-5-methylphenyl)imdazo [1,2-a]pyrazin-8-yl)amino)-1H-pyrazol-1-yl)piperidin-1-yl)ethyl)piperazin-1-yl)phenyl)-5-fluoropyrimidine-2,4(1H,3H)-dione]: the IC50 was 0.86 nM. This IC50 lies about 4.7-fold lower than the previous one. With `O=C1CCC(c2ccc(N3CCN(CCN4CCC(n5cc(Nc6ncc(-c7cnn8c7CCCC8)n7ccnc67)cn5)CC4)CC3)cc2)C(=O)N1` (stereo not shown) [Compound 114, 3-(4-(4-(2-(4-(4-((5-(4,5,6,7-tetrahydropyrazolo[1,5-a]pyridin-3-yl)imidazo[1,2-a]pyrazin-8-y1)amino)-1H-pyrazol-1-yl)piperidin-1-yl)ethyl)piperazin-1-y1)phenyl)piperidine-2,6-dione], the IC50 came to 0.92 nM. Turning to `O=C1CCC(c2ccc(N3CCN(CCN4CCC(n5cc(Nc6ncc(-c7ccc8c(c7)CC8)n7ccnc67)cn5)CC4)CC3)cc2)C(=O)N1` (stereo not shown) [Compound 85, 3-(4-(4-(2-(4-(4-((5-(bicyclo[4.2.0]octa-1(6),2,4-trien-3-yl)imidazo[1,2-a]pyrazin-8-yl)amino)-1H-pyrazol-1-yl)piperidin-1-yl)ethyl)piperazin-1-yl)phenyl) piperidine-2,6-dione], the IC50 was 25 nM. Against the preceding compound, the IC50 is about 27-fold higher.

For `Cc1cc(-c2cnc(Nc3cnn(C4CCN(CCN5CCC(n6cc(N7CCC(=O)NC7=O)cn6)CC5)CC4)c3)c3nccn23)c(F)cc1F` [Compound 116, 1-(1-(1-(2-(4-(4-((5-(2,4-difluoro-5-methylphenyl)imdazo [1,2-a]pyrazin-8-yl)amino)-1H-pyrazol-1-yl)piperidin-1-yl)ethyl)piperidin-4-yl)-1H-pyrazol-4-yl) dihydropyrimidine-2,4(1H,3H)-dione], the IC50 was 0.12 nM. As to `Cc1nc(Nc2cnn(C3CCN(CCN4CCN(c5ccc(C6CCC(=O)NC6=O)cc5)CC4)CC3)c2)c2nccn2c1C` (stereo not shown) [Compound 84, 3-(4-(4-(2-(4-(4-((5,6-dimethylimidazo[1,2-a]pyrazin-8-yl)amino)-1H-pyrazol-1-yl)piperidin-1-yl)ethyl)piperazin-1-yl)phenyl)piperidine-2,6-dione], the IC50 came out at 24 nM.
